Test results published in ChEMBL document CHEMBL1201862, “PubChem BioAssay data set” (2004).
Calls of active or inactive are those of the source.

What was measured:
[1] = target: UDP-galactopyranose mutase (Mycobacterium tuberculosis, UniProt P9WIQ1); test: Inhibitors of Mycobacterium tuberculosis UDP-galactopyranose mutase (UGM) enzyme Measured in Biochemical System Using Plate Reader - 2105-02_Inhibitor_Dose_CherryPick_Activity. [Related pubchem assays (depositor defined):AID504439]
[2] = target: Peroxisome proliferator-activated receptor gamma/Nuclear receptor coactivator 1 (Homo sapiens, UniProt P37231); test: TR-FRET dose response biochemical High Throughput Screening assay for agonists of the steroid receptor coactivator 1 (SRC-1) recruitment by the peroxisome proliferator-activated receptor gamma (PPAR gamma): non-selective agonists. [Related pubchem assays (depositor defined):AID1300, AID1808, AID504735, AID631]; assay type: protein assay
[3] = target: Peroxisome proliferator-activated receptor gamma/Nuclear receptor coactivator 3 (Homo sapiens, UniProt P37231); test: TR-FRET dose response biochemical High Throughput Screening assay for agonists of the steroid receptor coactivator 3 (SRC-3) recruitment by the peroxisome proliferator-activated receptor gamma (PPAR gamma): non-selective agonists. [Related pubchem assays: 1301 (Confirmation screen.), 1048 (Primary screen.)]; assay type: functional
[4] = target: Peroxisome proliferator-activated receptor gamma/Nuclear receptor coactivator 2 (Homo sapiens, UniProt P37231); test: TR-FRET dose response biochemical High Throughput Screening assay for agonists of the steroid receptor coactivator 2 (SRC-2) recruitment by the peroxisome proliferator-activated receptor gamma (PPAR gamma): non-selective agonists. [Related pubchem assays: 1297, 1032 ]; assay type: functional
Chain of Peroxisome proliferator-activated receptor gamma/Nuclear receptor coactivator 2 (P37231 whole entry): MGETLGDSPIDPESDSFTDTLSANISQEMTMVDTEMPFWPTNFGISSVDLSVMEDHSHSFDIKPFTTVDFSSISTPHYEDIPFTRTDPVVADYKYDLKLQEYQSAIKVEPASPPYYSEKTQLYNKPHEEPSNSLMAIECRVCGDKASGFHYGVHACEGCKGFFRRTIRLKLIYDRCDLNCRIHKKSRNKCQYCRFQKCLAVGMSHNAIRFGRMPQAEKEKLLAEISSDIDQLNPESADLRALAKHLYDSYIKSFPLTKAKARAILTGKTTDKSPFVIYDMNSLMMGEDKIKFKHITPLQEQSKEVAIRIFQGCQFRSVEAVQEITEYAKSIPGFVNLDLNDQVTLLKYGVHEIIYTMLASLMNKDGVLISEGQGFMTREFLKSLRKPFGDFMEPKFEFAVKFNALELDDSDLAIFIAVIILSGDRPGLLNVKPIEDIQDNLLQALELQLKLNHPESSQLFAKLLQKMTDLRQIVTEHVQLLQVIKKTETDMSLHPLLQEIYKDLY
Chain of Peroxisome proliferator-activated receptor gamma/Nuclear receptor coactivator 2 (Q15596 whole entry, further chain): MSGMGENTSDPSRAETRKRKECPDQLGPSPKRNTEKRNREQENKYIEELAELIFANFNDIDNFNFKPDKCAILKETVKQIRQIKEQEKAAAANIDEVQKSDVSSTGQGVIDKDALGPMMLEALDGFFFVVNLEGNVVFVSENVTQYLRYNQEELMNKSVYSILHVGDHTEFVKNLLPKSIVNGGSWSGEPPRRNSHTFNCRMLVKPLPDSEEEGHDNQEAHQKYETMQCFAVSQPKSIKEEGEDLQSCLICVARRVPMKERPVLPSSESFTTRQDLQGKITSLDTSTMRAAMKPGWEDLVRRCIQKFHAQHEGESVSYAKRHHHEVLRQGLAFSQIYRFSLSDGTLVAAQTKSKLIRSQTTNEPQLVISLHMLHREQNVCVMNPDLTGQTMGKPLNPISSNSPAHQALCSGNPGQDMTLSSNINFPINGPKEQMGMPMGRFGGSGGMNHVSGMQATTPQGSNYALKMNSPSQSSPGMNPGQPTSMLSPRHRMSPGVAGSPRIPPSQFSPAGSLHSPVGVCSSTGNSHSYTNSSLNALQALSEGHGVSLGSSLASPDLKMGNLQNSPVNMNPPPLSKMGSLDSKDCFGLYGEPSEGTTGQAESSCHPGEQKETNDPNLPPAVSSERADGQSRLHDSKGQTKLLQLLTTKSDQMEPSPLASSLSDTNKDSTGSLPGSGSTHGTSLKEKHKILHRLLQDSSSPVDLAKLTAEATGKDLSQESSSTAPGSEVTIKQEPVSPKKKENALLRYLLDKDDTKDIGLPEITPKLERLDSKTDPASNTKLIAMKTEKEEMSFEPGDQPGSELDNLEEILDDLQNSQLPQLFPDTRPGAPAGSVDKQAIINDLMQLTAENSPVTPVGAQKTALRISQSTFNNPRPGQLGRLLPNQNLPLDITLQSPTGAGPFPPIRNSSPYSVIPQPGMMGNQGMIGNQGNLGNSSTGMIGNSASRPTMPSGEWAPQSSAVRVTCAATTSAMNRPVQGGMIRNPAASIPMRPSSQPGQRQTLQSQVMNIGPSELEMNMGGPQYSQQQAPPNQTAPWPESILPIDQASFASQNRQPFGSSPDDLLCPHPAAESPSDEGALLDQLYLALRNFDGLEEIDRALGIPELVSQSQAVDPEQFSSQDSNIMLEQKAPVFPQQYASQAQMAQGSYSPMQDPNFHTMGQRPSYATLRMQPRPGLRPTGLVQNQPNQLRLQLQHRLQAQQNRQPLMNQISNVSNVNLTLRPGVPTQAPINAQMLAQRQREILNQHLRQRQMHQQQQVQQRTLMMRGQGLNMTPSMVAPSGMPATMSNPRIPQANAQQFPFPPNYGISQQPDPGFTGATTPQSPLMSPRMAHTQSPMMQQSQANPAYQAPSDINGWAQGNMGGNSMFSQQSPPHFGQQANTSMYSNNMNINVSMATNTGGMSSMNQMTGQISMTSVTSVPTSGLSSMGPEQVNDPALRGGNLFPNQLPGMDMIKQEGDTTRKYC

[5] = target: Mitogen-activated protein kinase 10 (Homo sapiens, UniProt P53779); test: Dose response biochemical screening assay for inhibitors of c-Jun N-Terminal Kinase 3 (JNK3). [Related pubchem assays: 746 ]
[6] = target: Lysine-specific demethylase 4C (Homo sapiens, UniProt Q9H3R0); test: inhibition of JMJD2C H3K9me3 demethylation – biochemical, DELFIA europium, cherry-picked samples, dose response (AID 488835); assay type: functional
Chain of Lysine-specific demethylase 4C (Q9H3R0 whole entry): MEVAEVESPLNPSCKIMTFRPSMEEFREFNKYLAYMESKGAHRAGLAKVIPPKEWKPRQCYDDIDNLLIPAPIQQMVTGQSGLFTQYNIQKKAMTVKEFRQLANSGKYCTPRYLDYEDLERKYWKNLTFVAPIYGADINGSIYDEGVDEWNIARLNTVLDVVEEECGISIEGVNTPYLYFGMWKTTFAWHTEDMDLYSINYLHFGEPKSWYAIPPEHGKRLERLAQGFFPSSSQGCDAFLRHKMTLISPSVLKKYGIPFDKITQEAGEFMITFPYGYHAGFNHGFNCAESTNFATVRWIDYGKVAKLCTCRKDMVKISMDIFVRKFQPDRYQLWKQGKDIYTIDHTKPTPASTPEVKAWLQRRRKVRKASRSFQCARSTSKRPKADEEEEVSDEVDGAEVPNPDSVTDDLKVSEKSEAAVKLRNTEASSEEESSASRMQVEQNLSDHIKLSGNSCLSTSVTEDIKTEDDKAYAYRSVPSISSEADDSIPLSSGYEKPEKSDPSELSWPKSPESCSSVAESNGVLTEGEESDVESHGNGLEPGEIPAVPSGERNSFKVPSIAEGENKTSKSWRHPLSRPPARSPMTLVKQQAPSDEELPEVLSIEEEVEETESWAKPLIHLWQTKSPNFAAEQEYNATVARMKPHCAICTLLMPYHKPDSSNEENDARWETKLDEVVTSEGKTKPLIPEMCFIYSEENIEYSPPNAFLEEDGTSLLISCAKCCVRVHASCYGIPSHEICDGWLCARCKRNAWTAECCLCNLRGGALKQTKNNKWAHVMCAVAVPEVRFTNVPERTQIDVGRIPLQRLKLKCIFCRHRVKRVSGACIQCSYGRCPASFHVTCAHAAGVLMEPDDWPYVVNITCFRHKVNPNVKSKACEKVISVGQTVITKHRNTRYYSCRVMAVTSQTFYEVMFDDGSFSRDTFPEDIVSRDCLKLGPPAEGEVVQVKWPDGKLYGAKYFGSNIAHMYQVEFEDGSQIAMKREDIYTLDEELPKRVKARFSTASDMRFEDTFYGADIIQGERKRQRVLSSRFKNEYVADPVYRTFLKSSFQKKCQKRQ

[7] = target: T1, Microphthalmia-associated transcription factor (Homo sapiens, UniProt O75030); test: reducers of TRPM1 reporter luminescence, concentration series – cell-based, SK-MEL-5, cherry-picked, set 3, MITF inhibitor project, dose response (AID 493073); assay type: functional;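 further: SK-MEL-5 melanoma cells with luciferase driven by the MITF target TRPM1 promoter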
T1 sequence (O75030 whole entry): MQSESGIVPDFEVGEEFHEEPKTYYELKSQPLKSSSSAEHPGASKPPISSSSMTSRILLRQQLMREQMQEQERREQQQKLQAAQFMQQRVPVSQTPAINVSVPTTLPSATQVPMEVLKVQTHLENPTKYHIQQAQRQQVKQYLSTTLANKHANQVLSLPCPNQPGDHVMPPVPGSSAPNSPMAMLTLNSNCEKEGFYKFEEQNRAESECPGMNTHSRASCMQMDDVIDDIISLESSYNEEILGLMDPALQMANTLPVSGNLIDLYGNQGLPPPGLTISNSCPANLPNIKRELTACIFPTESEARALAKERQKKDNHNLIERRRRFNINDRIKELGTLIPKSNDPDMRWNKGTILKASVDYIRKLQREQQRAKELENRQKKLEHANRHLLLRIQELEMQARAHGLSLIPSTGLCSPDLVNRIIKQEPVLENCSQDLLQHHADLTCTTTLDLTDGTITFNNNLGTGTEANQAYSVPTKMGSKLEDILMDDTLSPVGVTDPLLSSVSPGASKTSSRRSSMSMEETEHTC

[8] = target: Hepatocyte nuclear factor 4-alpha (Homo sapiens, UniProt P41235); assay type: functional, cell-based;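 further: biochemical luminescence-based dose-response counterscreen measuring inhibition of HNF4 dimerization, run alongside a screen for blockers of ABHD5–perilipin-5 interaction; split luciferase complementation of HNF4 fusion proteins in cell lysate measuring dimerization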
[9] = viability loss in THP-1 monocytes – THP-1 cells, cytotoxicity control for Vif-APOBEC3G degradation inhibitor project, dose response (AID 1117359); assay type: functional; conditions: THP-1
[10] = target: T2, Mannose-6-phosphate isomerase (Homo sapiens, UniProt P34949); test: MPI enzyme activity inhibition – biochemical, fluorescence intensity, coupled assay, primary screen (AID 1209)
T2 sequence (P34949 whole entry): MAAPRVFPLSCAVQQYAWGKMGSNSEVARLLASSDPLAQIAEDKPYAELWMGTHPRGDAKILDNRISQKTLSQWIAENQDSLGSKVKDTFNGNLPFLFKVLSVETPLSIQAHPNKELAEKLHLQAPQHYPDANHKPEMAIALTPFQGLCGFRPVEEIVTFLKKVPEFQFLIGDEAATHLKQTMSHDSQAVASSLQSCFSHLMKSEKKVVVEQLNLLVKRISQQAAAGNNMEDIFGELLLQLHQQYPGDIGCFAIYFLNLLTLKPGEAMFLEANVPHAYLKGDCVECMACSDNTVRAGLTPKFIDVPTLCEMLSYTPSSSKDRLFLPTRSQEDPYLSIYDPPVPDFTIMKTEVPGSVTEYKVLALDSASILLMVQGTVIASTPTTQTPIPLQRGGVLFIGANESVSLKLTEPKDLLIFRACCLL

[11] = target: T2, Mannose-6-phosphate isomerase; test: phosphomannose isomerase inhibition – biochemical, fluorescence intensity, confirmation (AID 1535)
Phosphomannomutase 2 = Phosphomannomutase 2 (Homo sapiens, UniProt O15305); test: Counter screen SAR assay for PMM2 inhibitors via a fluorescence intensity assay. [Related pubchem assays (depositor defined):AID1545, AID1574]
Chain of Phosphomannomutase 2 (O15305 whole entry): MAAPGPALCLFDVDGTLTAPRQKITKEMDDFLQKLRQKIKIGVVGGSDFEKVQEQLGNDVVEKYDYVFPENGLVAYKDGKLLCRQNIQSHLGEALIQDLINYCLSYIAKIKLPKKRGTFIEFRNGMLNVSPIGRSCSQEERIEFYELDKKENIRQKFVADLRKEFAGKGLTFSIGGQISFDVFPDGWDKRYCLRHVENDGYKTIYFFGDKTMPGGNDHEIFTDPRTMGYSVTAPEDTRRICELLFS

[12] = target: Voltage-dependent T-type calcium channel subunit alpha-1H (Homo sapiens, UniProt O95180); assay type: functional;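 further: channel activity triggered by adding a high calcium stimulation buffer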
CAAX prenyl protease 2 [13] = target: T3, CAAX prenyl protease 2 (Saccharomyces cerevisiae S288c, UniProt Q03530); assay type: biochemical
T3 sequence (Q03530 whole entry): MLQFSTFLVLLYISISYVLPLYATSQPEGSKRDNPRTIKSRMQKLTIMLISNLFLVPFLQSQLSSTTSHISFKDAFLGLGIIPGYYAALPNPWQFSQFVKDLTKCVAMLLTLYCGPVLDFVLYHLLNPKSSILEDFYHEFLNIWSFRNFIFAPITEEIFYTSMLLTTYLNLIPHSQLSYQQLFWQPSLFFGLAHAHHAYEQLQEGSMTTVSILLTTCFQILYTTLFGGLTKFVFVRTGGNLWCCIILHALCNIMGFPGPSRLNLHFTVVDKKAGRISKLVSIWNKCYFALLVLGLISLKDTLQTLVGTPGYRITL

[14] = toxicity toward cultured mammalian cells – cell-based, plate reader, cherry-pick samples, cytotoxicity control, dose response (AID 504397); assay type: functional
CAAX prenyl protease 2 [15] = target: T4, CAAX prenyl protease 2 (Homo sapiens, UniProt Q9Y256); test: inhibition of Ras-converting CAAX protease Rce1 – biochemical, yeast membranes, quenched-peptide fluorescence, cherry-pick, dose response (AID 588849)
T4 sequence (Q9Y256 whole entry): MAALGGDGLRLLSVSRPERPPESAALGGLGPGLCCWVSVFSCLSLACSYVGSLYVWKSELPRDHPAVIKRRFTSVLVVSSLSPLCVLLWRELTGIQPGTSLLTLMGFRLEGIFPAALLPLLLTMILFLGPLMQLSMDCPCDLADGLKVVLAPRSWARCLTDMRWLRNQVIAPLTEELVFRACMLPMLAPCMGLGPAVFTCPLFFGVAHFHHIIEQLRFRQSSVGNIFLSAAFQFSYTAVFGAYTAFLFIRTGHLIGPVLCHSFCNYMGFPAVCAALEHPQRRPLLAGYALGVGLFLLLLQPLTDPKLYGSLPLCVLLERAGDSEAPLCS

Albumin = Albumin (Bos taurus, UniProt P02769); test: Counterscreen for inhibitors of T-cell receptor (TCR)-CD3 interaction: Fluorescence-based biochemical high throughput dose response assay to identify inhibitors of T-cell receptor (TCR)-CD3 interaction using a TAMRA-labeled BSA probe.; assay type: functional
SUMO-activating enzyme [16] = target: T5, SUMO-activating enzyme (Homo sapiens, UniProt Q9UBT2); test: blockers of UBC9-mediated SUMO conjugation – biochemical, AlphaScreen, SUMOylation inhibitor project, confirmation (AID 2018); assay type: functional
T5 sequence (Q9UBE0 whole entry): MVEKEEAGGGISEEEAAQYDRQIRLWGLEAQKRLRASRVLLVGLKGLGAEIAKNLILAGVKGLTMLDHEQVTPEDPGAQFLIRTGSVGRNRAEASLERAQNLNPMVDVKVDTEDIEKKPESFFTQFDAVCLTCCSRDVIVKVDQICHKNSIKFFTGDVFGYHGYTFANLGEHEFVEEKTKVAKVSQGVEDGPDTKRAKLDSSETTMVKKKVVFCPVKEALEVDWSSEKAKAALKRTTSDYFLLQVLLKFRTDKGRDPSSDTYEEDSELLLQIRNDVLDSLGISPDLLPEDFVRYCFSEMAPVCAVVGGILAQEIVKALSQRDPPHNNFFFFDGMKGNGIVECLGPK
T5 sequence (Q9UBT2 whole entry): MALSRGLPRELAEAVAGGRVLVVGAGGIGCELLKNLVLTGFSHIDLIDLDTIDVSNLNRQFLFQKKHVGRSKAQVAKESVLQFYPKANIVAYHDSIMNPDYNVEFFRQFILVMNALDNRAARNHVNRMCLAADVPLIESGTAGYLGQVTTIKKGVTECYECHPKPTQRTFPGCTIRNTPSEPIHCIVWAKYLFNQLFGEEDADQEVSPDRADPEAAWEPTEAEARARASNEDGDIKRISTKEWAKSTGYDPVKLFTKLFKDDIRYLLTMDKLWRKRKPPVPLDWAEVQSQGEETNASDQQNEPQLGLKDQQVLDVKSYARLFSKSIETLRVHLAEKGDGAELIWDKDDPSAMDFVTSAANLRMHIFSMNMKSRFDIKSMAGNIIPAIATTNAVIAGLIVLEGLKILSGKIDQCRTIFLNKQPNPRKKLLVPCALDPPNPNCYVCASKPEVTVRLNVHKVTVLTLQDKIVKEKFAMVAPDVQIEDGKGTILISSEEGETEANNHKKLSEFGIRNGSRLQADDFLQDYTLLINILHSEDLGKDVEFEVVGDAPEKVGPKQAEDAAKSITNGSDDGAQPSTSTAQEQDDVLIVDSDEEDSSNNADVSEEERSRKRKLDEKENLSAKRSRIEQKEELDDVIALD

Large T antigen = Large T antigen (Simian virus 40, UniProt P03070); assay type: functional, Betapolyomavirus macacae;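 further: Confirmatory-stage PubChem screen for compounds that inhibit SV40 T antigen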
SUMO-activating enzyme [17] = target: T5, SUMO-activating enzyme; test: blockers of SAE1/SAE2–UBC9 SUMO transfer – biochemical, HTRF, uHTS, primary screen (AID 2006); assay type: protein-complex assay
[18] = target: Induced myeloid leukemia cell differentiation protein Mcl-1 (Homo sapiens, UniProt Q07820); assay type: functional
Chain of Induced myeloid leukemia cell differentiation protein Mcl-1 (Q07820 whole entry): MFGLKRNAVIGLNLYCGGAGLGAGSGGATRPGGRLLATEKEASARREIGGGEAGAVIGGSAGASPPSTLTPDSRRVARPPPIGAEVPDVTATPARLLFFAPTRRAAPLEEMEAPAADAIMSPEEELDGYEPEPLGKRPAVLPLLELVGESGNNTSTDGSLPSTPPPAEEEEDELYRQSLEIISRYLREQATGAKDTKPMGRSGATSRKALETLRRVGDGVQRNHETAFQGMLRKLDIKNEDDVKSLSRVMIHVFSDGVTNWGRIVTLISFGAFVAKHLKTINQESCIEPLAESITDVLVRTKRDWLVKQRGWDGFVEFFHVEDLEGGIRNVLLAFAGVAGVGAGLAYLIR

[19] = target: T6, Heat shock factor protein 1 (Mus musculus, UniProt P38532); test: enhancement of HSF1-driven luciferase signal – cell-based, NIH3T3, luminescence, dose retest, confirmation (AID 435004); assay type: functional;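 further: stress induced by proteasome inhibitor MG132 added 30 min after compound; luciferase reporter driven by HSF1 response element in NIH3T3 cells; actives raise luminescence as potentiators of the MG132 stress response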
T6 sequence (P38532 whole entry): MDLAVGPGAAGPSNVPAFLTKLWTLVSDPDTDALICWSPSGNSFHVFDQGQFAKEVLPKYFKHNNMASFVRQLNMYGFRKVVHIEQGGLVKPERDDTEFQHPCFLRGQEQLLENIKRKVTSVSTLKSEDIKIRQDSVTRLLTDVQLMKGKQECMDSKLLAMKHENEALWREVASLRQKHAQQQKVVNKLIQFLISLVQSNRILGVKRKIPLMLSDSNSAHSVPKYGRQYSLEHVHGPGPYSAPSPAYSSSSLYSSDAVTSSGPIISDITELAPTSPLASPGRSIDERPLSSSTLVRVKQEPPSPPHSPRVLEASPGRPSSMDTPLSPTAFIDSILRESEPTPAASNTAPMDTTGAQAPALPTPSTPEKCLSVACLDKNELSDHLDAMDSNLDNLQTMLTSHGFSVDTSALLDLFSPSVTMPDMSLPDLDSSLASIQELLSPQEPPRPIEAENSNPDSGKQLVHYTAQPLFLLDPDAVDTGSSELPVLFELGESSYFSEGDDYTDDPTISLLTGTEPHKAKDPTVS

Vero [20] = test: viability of Vero cells under compound – cytotoxicity control for flavivirus capping enzyme inhibitors (AID 588742); assay type: functional; conditions: Chlorocebus sabaeus
Vero [21] = test: cells; assay type: functional; conditions: Chlorocebus sabaeus
Genome polyprotein = Genome polyprotein (dengue virus type 2, UniProt P29990); test: flavivirus cap methylation enzyme inhibition – biochemical, confirmation dose response, primary screen (AID 588689); assay type: functional
[22] = target: DNA (cytosine-5)-methyltransferase 1 (Homo sapiens, UniProt P26358); test: inhibition of DNA methylation by DNMT1 – biochemical, fluorescent molecular beacon, confirmation (AID 602386); assay type: functional
Protein skinhead-1 = target: T7, Protein skinhead-1 (Caenorhabditis elegans, UniProt P34707); assay type: functional
T7 sequence (P34707 whole entry): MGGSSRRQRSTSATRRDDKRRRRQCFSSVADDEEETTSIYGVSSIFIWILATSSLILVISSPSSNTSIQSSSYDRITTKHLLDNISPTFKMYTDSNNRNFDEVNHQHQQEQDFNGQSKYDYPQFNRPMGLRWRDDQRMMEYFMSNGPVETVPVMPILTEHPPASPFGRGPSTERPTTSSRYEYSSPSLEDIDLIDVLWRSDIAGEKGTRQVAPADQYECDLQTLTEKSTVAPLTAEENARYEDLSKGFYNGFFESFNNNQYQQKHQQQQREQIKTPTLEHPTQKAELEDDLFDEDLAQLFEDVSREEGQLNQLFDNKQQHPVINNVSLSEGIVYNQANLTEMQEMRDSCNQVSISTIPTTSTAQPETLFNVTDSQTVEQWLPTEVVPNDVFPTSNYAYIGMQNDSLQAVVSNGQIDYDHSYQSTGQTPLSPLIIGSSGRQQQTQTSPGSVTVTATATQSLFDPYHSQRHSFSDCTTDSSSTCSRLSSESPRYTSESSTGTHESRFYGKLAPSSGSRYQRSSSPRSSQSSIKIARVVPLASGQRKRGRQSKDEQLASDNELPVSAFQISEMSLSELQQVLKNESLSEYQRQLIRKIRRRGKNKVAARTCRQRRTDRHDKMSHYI

Chain of UDP-galactopyranose mutase (P9WIQ1 whole entry): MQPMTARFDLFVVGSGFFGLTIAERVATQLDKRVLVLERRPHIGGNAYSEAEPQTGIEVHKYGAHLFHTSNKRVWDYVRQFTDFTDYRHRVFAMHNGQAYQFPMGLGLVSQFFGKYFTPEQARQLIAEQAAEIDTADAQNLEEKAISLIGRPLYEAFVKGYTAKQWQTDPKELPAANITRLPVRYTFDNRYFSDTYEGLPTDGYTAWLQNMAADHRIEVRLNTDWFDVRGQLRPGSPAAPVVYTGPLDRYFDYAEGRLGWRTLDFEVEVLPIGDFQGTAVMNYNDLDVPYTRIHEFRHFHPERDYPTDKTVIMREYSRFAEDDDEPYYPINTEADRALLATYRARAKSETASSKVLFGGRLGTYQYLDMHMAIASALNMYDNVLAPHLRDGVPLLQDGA

## Cc1cc(C(C)(C)C)cc(S(=O)(=O)Nc2ccc(C(=O)O)cc2)c1C
[1]
  AC50: 0.201 µM (active)

## CCOC(=O)CCC(NC(=O)c1ccc(NCN2C(=O)c3ccccc3C2=O)cc1)C(=O)OCC (stereo not drawn)
[2]
  EC50: > 79.4 µM (inactive)
[3]
  EC50: > 79.4 µM (not active)
[4]
  EC50: > 79.4 µM (not active)
[5]
  IC50: 13.1 µM (not active)

## O=C1NC(=O)N(Cc2ccc(F)cc2)C(=O)/C1=C\C=C\c1ccco1
[6]
  AC50: 7.02 µM (active)
[7]
  AC50: 6.63 µM (active)
[8]
  IC50: 1.87 µM (active)
[9]
  CC50: 28.9 µM (active)

## Cc1cc2n(n1)SC(Nc1ccc(F)c(Cl)c1)N2 (stereo not drawn)
[10]
  IC50: > 50 µM (not active)
[11]
  IC50: > 50 µM (inactive)
Phosphomannomutase 2
  IC50: > 100 µM (inactive)

## O=C(Nc1ccc(S(=O)(=O)Nc2ccccc2)cc1)C1COc2ccccc2O1 (stereo not drawn)
[12]
  EC50: 3.37 µM (active)
CAAX prenyl protease 2 [13]
  AC50: 4.26 µM (active)
[14]
  AC50: 120 µM (active)
CAAX prenyl protease 2 [15]
  AC50: 65.5 µM (active)

## O=C(NNC(=O)C1CCN(S(=O)(=O)c2ccccc2)CC1)c1ccccc1O
[6]
  AC50: 6.67 µM (active)
Albumin
  IC50: > 94.1 µM (inactive)

## O=C1NC(=S)NC(=O)C1=Cc1cccn1-c1ccc(O)cc1
SUMO-activating enzyme [16]
  IC50: 7.4 µM (active)
Large T antigen
  IC50: 30.3 µM (active)
SUMO-activating enzyme [17]
  IC50: 21.9 µM (active)
[18]
  IC50: 4.45 µM (active)
[19]
  EC50: 10.6 µM (active)
[7]
  AC50: 11.4 µM (active)
Vero [20]
  CC50: 34.8 µM (active)
Vero [21]
  CC50: 23 µM (active)
Genome polyprotein
  IC50: 34.2 µM (active)
[22]
  IC50: 4.82 µM (active)

## COc1ccccc1N1C(=O)C2C(C(=O)c3ccccc3)=NN(c3ccc(Br)cc3)C2C1=O (stereo not drawn)
[1]
  AC50: 265 µM (active)

## Brc1cc(Br)c2nc(-c3cccs3)ccc2c1
[2]
  EC50: 34.7 µM (inactive)
[3]
  EC50: 47.9 µM (not active)
[4]
  EC50: 30 µM (not active)
Protein skinhead-1
  IC50: > 100 µM (inactive)

## Cc1oc(-c2cccs2)nc1CSCC(=O)N1CCC2(CC1)OCCO2
[14]
  AC50: 256 µM (active)

## O=C1N=C(Nc2ccc(O)cc2)S/C1=C\C=C\c1ccco1
SUMO-activating enzyme [16]
  IC50: 2.59 µM (active)
Large T antigen
  IC50: 31.5 µM (active)
SUMO-activating enzyme [17]
  IC50: 30.8 µM (active)
[9]
  CC50: 2.84 µM (active)
